Results taken from US20090197914A1, “Piperidine Derivatives, Their Process for Preparation, Their Use as Therapeutic Agents and Pharmaceutical Compositions Containing Them” (priority 2006, published 2009).

What was measured:
[1] = target: T1, human recombinant CCR3 receptors (Homo sapiens, UniProt P51677); assay: Compound affinity at human recombinant CCR3 receptors by radioligand competition, CHO-K1 cell membranes; type: binding; details: mean pKi by Cheng-Prussof correction of pIC50, minimum of 2 separate experiments, 2 nM [3H] ligand, 2 h at 37° C.
T1 construct: expressed in transfected cells; membranes
T1 sequence (P51677 1-355): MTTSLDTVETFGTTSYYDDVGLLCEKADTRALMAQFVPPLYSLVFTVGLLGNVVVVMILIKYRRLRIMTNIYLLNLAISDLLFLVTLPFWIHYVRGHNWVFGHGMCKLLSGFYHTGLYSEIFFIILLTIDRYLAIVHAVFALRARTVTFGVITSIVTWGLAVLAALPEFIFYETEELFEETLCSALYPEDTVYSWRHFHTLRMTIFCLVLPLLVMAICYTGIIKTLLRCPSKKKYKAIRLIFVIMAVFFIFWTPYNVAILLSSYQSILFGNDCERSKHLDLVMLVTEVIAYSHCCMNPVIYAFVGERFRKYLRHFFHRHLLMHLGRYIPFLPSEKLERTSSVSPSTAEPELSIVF
Description: Determination of Compound Affinity at Human Recombinant CCR3 Receptors Assessed By Competition of [^3H]-4-(2,4-dichloro-3-methylphenoxy)-1′-[4-(methylsulfonyl)benzoyl]-1,4′-bipiperidine for CHO-K1 Cell Membranes In Vitro
Membranes, prepared from CHO-K1 cells stably expressing recombinant human CCR3, suspended in assay buffer (50 mM Tris-Base, pH 7.4; containing sodium chloride (100 mM) and magnesium chloride (2 mM)) were incubated in the presence of 2 nM [^3H]-4-(2,4-dichloro-3-methylphenoxy)-1′-[4-(methylsulfonyl)benzoyl]-1,4′-bipiperidine, along with vehicle (1% (v/v) DMSO), 4-(4-chloro-3-methylphenoxy)-1′-[2-(methylsulfonyl)benzoyl]-1,4′-bipiperidine (to define non-specific binding) or test compound for 2 h at 37° C. in round bottomed 96-well plates. […] Four washes (250 μL) with wash buffer (50 mM Tris-Base, pH 7.4 containing sodium chloride (500 mM) and magnesium chloride (2 mM)) were performed at 4° C. to remove unbound radioactivity. […] The plates were sealed (TopSeal A) and filter-bound radioactivity was measured with a scintillation counter (TopCount, Packard BioScience) using a 1 minute counting protocol.
Specific binding was determined from values of the control wells minus the values for the NSB wells for each assay plate. […] Data were presented as mean pKi values (calculated by applying a Cheng-Prussof correction to pIC50 values) from a minimum of 2 separate experiments.

[2] = Intrinsic clearance with human liver microsomes; type: in vitro ADME; details: human liver microsomes 1 mg protein/ml, NADPH, pH 7.4
Description: Determination of Intrinsic Clearance with Human Liver Microsomes
Frozen human liver microsomes (BD Gentest, Oxford) were defrosted and were then diluted with 0.1 M pH 7.4 phosphate buffer at 4° C. to 1 mg protein/ml. 0.45 mL aliquots of the microsome suspension were dispensed into flat-bottomed vials (1 per compound) and were allowed to come to room temperature (5 min). During the warming time, 5 μL of solution of each test compound (typically 100 μM in DMSO) was dispensed into separate vials resulting in a final DMSO concentration of 1%. 50 μL of a 10 mM solution of NADPH in phosphate buffer (0.1 M pH 7.4, 37° C.) was added to each vial to initiate metabolism.
50 μL Aliquots of the mixtures were removed at measured intervals and were immediately quenched by addition to 100 μL of methanol cooled in ice. The quenched samples were kept cold (at −20° C. or less) for at least 1 h and were then centrifuged to remove protein.
The supernatant solution was analysed using quantitative LCMS for the presence of test compound. From the concentrations of test compound at different time points a T1/2 may be calculated which may be converted to an intrinsic clearance using the equation: CLint=ln 2/T1/2.

Cc1c(CN2CCC(NC(=O)COc3nc(N)c(C(=O)O)cc3F)CC2)ccc(Cl)c1Cl [Example 4, 2-Amino-6-{[1-(3,4-dichloro-2-methyl-benzyl)-piperidin-4-ylcarbamoyl]-methoxy}-5-fluoro-nicotinic acid]
Ki [1]: 3.16 nM | CLint scaled at 1 µM [2]: < 3 mL/min/kg
